Publication PMC9354705, “Characterization of TR‐107, a novel chemical activator of the human mitochondrial protease ClpP” (Pharmacology Research & Perspectives, 2022)
Where two headings read alike, the source gives them in different places.

Legend:
MDA‐MB‐231 cells = assay: Cell viability (total cell count, Hoechst stain) in MDA‐MB‐231 cells; format: cell-based, human; details: Homo sapiens, MDA-MB-231, 72 h
[1] = cited from earlier work
[2] = Pharmacokinetic analysis in ICR mice; format: in vivo, mouse; details: for bioavailability: 10 mg/kg oral vs 2.0 mg/kg i.v., read-out: F% (oral bioavailability)
Method: Samples were placed in tubes containing heparin sodium and stored on ice until centrifuged. Blood samples were centrifuged at 6800g for 6 min at 2–8°C within 1 h following sample collection and stored at −80°C. Proteins from plasma sample aliquots (20 μl) were precipitated by the addition of MeOH (400 μl) containing an internal standard (tolbutamide,100 ng/ml), vortexed for 1 min, and centrifuged at 18 000g for 7 min. The supernatant (200 μl) was transferred to 96 well plates for analysis.
Analysis of samples was conducted as follows. […] The PK parameters including Area Under the Curve (AUC[0–∞]) elimination half‐life (t 1/2), maximal plasma concentration (C max), and oral bioavailability (F%) were analyzed by noncompartmental methods.

SUM159 cells = assay: Cell viability (total cell count, Hoechst stain) in SUM159 cells; format: cell-based; details: Homo sapiens, WT cells, 72 h, mean N = 3
Method: Human TNBC cell line SUM159 was a generous gift from Dr. Gary Johnson (the University of North Carolina at Chapel Hill). MDA‐MB‐231 (WT and CLPP‐KO) cells were provided by Dr. Stanley Lipkowitz (National Cancer Institute). MDA‐MB‐231 cells were cultured in RPMI‐1640 media (Gibco, 11875‐093) supplemented with 10% fetal bovine serum (FBS; VWR‐Seradigm, 97068‐085), and 1% antibiotic–antimycotic (anti/anti; ThermoFisher Scientific, 15240062). SUM159 cells were cultured in Dulbecco's modified Eagle's medium: Nutrient Mixture F‐12 (DMEM/F12; Gibco, 11330‐032) supplemented with 5% FBS, 5 μg/ml insulin (Gibco, 12585014), 1 μg/ml hydrocortisone, and 1% anti/anti. Cells were maintained at 5% CO2 and 37°C and periodically tested for mycoplasma.
Total cell counting assays were performed by seeding MDA‐MB‐231 cells (WT and ClpP‐KO; 4000 cells/well) or SUM159 (WT and ClpP‐KO; 1000 cells/well) in a 96‐well plate (Perkin Elmer, 6005050) and allowed to adhere overnight. The growth medium was then aspirated and replaced with 100 μl of growth medium supplemented with the drug at concentrations indicated in the figure or figure legends. Cells treated with vehicle control (0.1% DMSO, Sigma‐Aldrich D2650) were used as a negative control in all experiments, and cells were incubated with drug‐containing media for 24, 48, or 72 h as indicated in figure legends. Media was then aspirated and replaced with 100 μl Dulbecco's phosphate‐buffered saline (DPBS Gibco, 14190‐144) containing 1 μg/ml Hoechst stain (ThermoFischer Scientific, H3570) and allowed to incubate at 37°C for 30 min. The total cell number was then quantified using the Celigo Imaging Cytometer (Nexcelom).

[3] = molecular target: purified recombinant human ClpP (Homo sapiens, UniProt Q16740); assay: In vitro ClpP activity assay (casein‐FITC degradation); format: biochemical; details: relative to DMSO, read-out: EC50 (nM) ClpP activation
Chain of purified recombinant human ClpP (Q16740 57-277): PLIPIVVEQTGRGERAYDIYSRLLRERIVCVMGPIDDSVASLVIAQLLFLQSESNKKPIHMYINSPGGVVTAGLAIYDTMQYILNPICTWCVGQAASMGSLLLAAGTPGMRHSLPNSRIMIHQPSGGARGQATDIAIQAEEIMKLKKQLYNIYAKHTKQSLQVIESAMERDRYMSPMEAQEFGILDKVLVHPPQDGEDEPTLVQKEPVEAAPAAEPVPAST
Method: Measurement of in vitro activity of purified recombinant human ClpP was performed with a slight modification to the method previously described.[46] Briefly, ClpP activity was measured through the degradation of casein‐FITC (Sigma‐Aldrich, C0528) in the presence of indicated compounds. […] Enzyme and compounds were mixed and incubated in assay buffer for 30 min before adding casein‐FITC substrate. […] Linear slope of fluorescence signal was used to measure ClpP activity and normalized to DMSO control, expressed as RFU/h.

C3(1)‐Tag cells = assay: Cell viability assay of C3Tag cells; format: cell-based, murine; details: Mus musculus; 72 h, Hoechst stain, N = 2
[4] = test system: MDA‐MB‐231 and SUM159 cells; assay: Immunoblotting for mitochondrial proteins; format: cell-based, human; details: 100 nM TR‐107, 150 nM TR‐57, or 10 μM ONC201
Method: Cell lysates were clarified and immunoblotted as described earlier.[45] Membranes were incubated with primary antibodies (Appendix S1) diluted 1:1000 in 1% fish gelatin (Sigma‐Aldrich, G7041)/TBST overnight at 4°C, removed, washed 3 × 5 min in TBST, and placed in their respective 2° antibodies (1:10 000 dilution in 5% milk/TBST) for 1 h. […] Acquired images were processed/quantified using Image Lab software (BioRad) or Image Studio Lite (LI‐COR).

[5] = test system: MDA‐MB‐231 or SUM159 cells; assay: Caspase‐3/7 activity assay and PARP cleavage; format: cell-based, human; details: for caspase‐3/7 activity: 24 h, 10 μM ONC201, 150 nM TR‐57, 100 nM TR‐107, 100 nM staurosporine; for PARP cleavage: data not shown
Method: […]. The samples were collected in lysis buffer (50 mM HEPES [pH: 7.4], 5 mM CHAPS, and 5 mM DTT), and caspase activity was measured by monitoring fluorescence (ex/em: 360/460 nm) using a SpectraMax i3x (Molecular Devices).

[6] = WT cells, Hoechst stain, mean N = 3, read-out: IC50 (nM) MDA-MB-231
[7] = male, mouse, plasma, iv, ICR mice, 2.0 mg/kg i.v.
[8] = male, mouse, plasma, iv, ICR mice, 2.0 mg/kg i.v., read-out: C max
[9] = male, mouse, plasma, iv, ICR mice, 2.0 mg/kg i.v., read-out: C max (mg/ml)
[10] = male, mouse, plasma, iv, ICR mice, 2.0 mg/kg i.v., read-out: T 1/2 (converted)
[11] = male, mouse, plasma, ICR mice, 10 mg/kg oral
[12] = male, mouse, plasma, ICR mice, 10 mg/kg oral, read-out: C max
[13] = male, mouse, plasma, ICR mice, 10 mg/kg oral, read-out: C max (mg/ml)
[14] = male, mouse, plasma, ICR mice, 10 mg/kg oral, read-out: T 1/2 (converted)

AUC(0-inf) [2, 7] [ng·h/mL]	Cmax [2, 8] [nM]	Cmax [2, 9] [ng/mL]	half-life [2, 10] [h]	bioavailability ([2]; male, mouse, plasma, ICR mice) [%]	Cmax [2, 12] [nM]	Cmax [2, 13] [ng/mL]	half-life [2, 14] [h]	EC50 [3] [nM]	Compound	IC50 (MDA‐MB‐231 cells; [6]) [nM]	IC50 (SUM159 cells) [nM]	other results
–	–	–	–	–	–	–	–	670	N#Cc1cccc(CC2CCC3=C(C2)C(=O)N(Cc2ccc(C(F)(F)F)cc2)C2=NCCN23)c1 (stereo not shown) [TR‐109]	2200	4600	–
–	–	–	–	–	–	–	–	1100	N#Cc1cccc(CN2CCC3=C(C2)C(=O)N(Cc2ccc(Cl)cc2)C2=NCC(F)(F)CN23)c1 [TR‐106]	430	120	–
–	–	–	–	–	–	–	–	340	Cc1nc2c(c(=O)n1Cc1ccc(Cl)cc1)CN(Cc1cccc(C#N)c1)CC2 [TR‐97]	104	53	–
–	–	–	–	–	–	–	–	310	N#Cc1cccc(CN2CCC3=C(C2)C(=O)N(Cc2ccc(C(F)(F)F)cc2)C2=NCCCN23)c1 [TR‐98]	21	24	–
–	–	–	–	–	–	–	–	1100	N#Cc1cccc(CC2CCC3=C(C2)C(=O)N(Cc2ccc(Cl)cc2)C2=NCCN23)c1 (stereo not shown) [TR‐122]	2600	3500	–

Further lines, the molecule ahead of its results:

Compound	AUC(0-inf) [2, 7] [ng·h/mL]	Cmax [2, 8] [nM]	Cmax [2, 9] [ng/mL]	half-life [2, 10] [h]	bioavailability ([2]; male, mouse, plasma, ICR mice) [%]	Cmax [2, 12] [nM]	Cmax [2, 13] [ng/mL]	half-life [2, 14] [h]	EC50 [3] [nM]	IC50 (MDA‐MB‐231 cells; [6]) [nM]	IC50 (SUM159 cells) [nM]	other results
O=C1C2=C(CCN(Cc3ccccc3)C2)N2CCN=C2N1Cc1ccc(C(F)(F)F)cc1 [ONC212/TR‐31, reference compound]	638	2200	950	1.68	14	640	282	1.49	310	80	27	reported t 1/2 ([1]; oral dose of 125 mg/kg): 4.3 h; AUC(0-inf) [2, 11]: 449 ng·h/mL
CC(=O)O[C@H]1C(=O)[C@@]2(C)[C@H]([C@H](OC(=O)c3ccccc3)[C@]3(O)C[C@H](OC(=O)[C@H](O)[C@@H](NC(=O)c4ccccc4)c4ccccc4)C(C)=C1C3(C)C)[C@]1(OC(C)=O)CO[C@@H]1C[C@@H]2O [Paclitaxel, paclitaxel, reference compound]	–	–	–	–	–	–	–	–	–	–	–	IC50 (C3(1)‐Tag cells): 14 nM
O=C1C2=C(CCN(Cc3ccccc3)C2)N2CCN=C2N1Cc1ccc(F)cc1F [ONC206, reference compound]	–	–	–	–	–	–	–	–	830	260	180	–
N#Cc1cccc(CN2CCC3=C(C2)C(=O)N(Cc2ccc(Cl)cc2)C2=NCCN23)c1 [TR‐65]	351	1500	636	0.73	33	670	294	0.95	–	–	–	AUC(0-inf) [2, 11]: 584 ng·h/mL
C#Cc1cccc(CN2CCC3=C(C2)C(=O)N(Cc2ccc(Cl)cc2)C2=NCCN23)c1 [TR‐27]	155	350	154	1.06	33	290	127	1.16	–	–	–	–
Cc1ccccc1CN1C(=O)C2=C(CCN(Cc3ccccc3)C2)N2CCN=C12 [ONC201, reference compound]	50.7	310	–	0.26	1.2	23	–	0.31	–	–	–	IC50 (MDA‐MB‐231 cells; media containing galactose, read-out: IC50 (nM) Galactose): 350 nM; IC50 (MDA‐MB‐231 cells; media containing glucose, read-out: IC50 [glucose]): 1700 nM; TUFM and TFAM protein levels by 24 h [4]: complete or near‐complete loss; time at which TUFM and TFAM protein levels began to decline [4]: ~ 6 h; reported t 1/2 ([1]; in mice, higher doses): 6.4 h; increase in exposure (AUC) vs 10 mg/kg oral ([2]; 25 mg/kg oral): 46 X; AUC (0–∞) ([2]; ICR mice, 10 mg/kg oral): 3.13 ng·h/mL; Cmax ([2]; male, mouse, in vivo, iv, ICR mice, 2.0 mg/kg i.v., read-out: C max (mg/ml)): 122 ng/mL; Cmax ([2]; male, mouse, in vivo, ICR mice, 10 mg/kg oral, read-out: C max (mg/ml)): 8.99 ng/mL; Cmax ([2]; male, mouse, in vivo, ICR mice, 25 mg/kg oral, blood collection 0.083–4 h, read-out: C max (mg/ml)): 195 ng/mL; AUC(0-inf) ([2]; male, mouse, plasma, ICR mice, 25 mg/kg oral, blood collection 0.083–4 h): 145 ng·h/mL; Cmax ([2]; male, mouse, plasma, ICR mice, 25 mg/kg oral, blood collection 0.083–4 h, read-out: C max): 500 nM; half-life ([2]; male, mouse, plasma, ICR mice, i.v. 2 mg/kg and oral 10 mg/kg arms, read-out: t 1/2 (range over study arms)): 0.26 to 0.31 h; caspase‐3/7 activity [5]: no increase; PARP cleavage [5]: no increase
CN[C@@H]1C[C@H]2O[C@@](C)([C@@H]1OC)n1c3ccccc3c3c4c(c5c6ccccc6n2c5c31)C(=O)NC4 [Staurosporine, staurosporine, reference compound]	–	–	–	–	–	–	–	–	–	–	–	caspase‐3/7 activity [5]: strong increase
Cn1c2c(c(=O)n(Cc3ccc(Cl)cc3)c1=O)CN(Cc1cccc(C#N)c1)CC2 [TR‐57]	886	3000	1240	1.52	61	4100	1710	1.4	–	–	–	TUFM and TFAM protein levels by 24 h [4]: complete or near‐complete loss; time at which TUFM and TFAM protein levels began to decline [4]: ~ 6 h; AUC ([2]; male, mouse, plasma, po, ICR mice, 10 mg/kg orally, read-out: exposure (AUC)): 2710 ng·h/mL; AUC(0-inf) [2, 11]: 2710 ng·h/mL; caspase‐3/7 activity [5]: no increase; PARP cleavage [5]: no increase
